Like-named read-outs stand apart in the source and are kept apart here.
What was measured:
[1] = Cell viability assay (EZ-Cytox), cytotoxicity; type: cell-based; details: human, HepAD38 cells; for viability at 65 h, 100 µM: read-out: Cytotoxicity % Livability (@100 μM)
Experimental: HepAD38 cells were cultured for 2 days in Dulbecco's Modified Eagle's medium (Welgene, LM001-05) supplemented with 10% FBS without tetracycline. […] After 65 hours of treatment, viability was measured using EZ-Cytox cell viability assay kit (Daeil Lab Service) according to the manufacturer's instructions. The absorbance was measured at 450 nm using a spectrophotometer (Spark, Tecan).

Protein = Protein (Hepatitis B virus genotype D subtype ayw, UniProt P03146); test: Protein inhibition rate / EC50 (Table 1, no method described); type: biochemical
intracellular HBV DNA = test: Real-time PCR for intracellular HBV DNA in HepAD38 cells; type: cell-based; details: 65 hours treatment
[2] = Hepatitis B virus, HePAD38, 65 h

Chain of Protein (P03146 whole entry): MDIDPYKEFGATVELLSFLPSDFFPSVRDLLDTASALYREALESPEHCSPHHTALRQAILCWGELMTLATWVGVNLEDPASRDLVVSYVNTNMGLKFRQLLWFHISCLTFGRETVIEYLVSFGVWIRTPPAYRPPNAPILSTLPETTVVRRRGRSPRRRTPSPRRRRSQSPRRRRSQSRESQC

Row | Compound | CC50 at 65 h [1] [nM] | viability at 65 h, 100 µM [1] [%] | EC50 (Protein) [nM] | inhibition at 30 µM (Protein) [%] | IC50 (intracellular HBV DNA; [2]) [nM] | IC50 (intracellular HBV DNA; read-out: IC50) [nM]
1 | COc1ccc(N(Cc2n[nH]c3c2CSCC3)C(=O)Nc2ccc(F)c(Cl)c2)cn1 [Example 45, 3-(3-chloro-4-fluorophenyl)-1-(6-methoxypyridin-3-yl)-1-((1,4,6,7-tetrahydrothiopyrano[4,3-c]pyrazol-3-yl)methyl)urea] | > 50000 | 3.3 | 3300 | 95.6 | 12 | 
2 | COc1ccc(N(Cc2n[nH]c3c2CC(F)(F)CC3)C(=O)Nc2ccc(F)c(Cl)c2)cn1 [Example 40, 3-(3-chloro-4-fluorophenyl)-1-((5,5-difluoro-4,5,6,7-tetrahydro-1H-indazol-3-yl)methyl)-1-(6-methoxypyridin-3-yl)urea] | 82500 | 4.6 | 3800 | 99.5 | 16 | 
3 | COc1ccc(N(Cc2cc(OC)[nH]n2)C(=O)Nc2ccc(F)c(Cl)c2)cn1 [Example 64, 3-(3-chloro-4-fluorophenyl)-1-((5-methoxy-1H-pyrazol-3-yl)methyl)-1-(6-methoxypyridin-3-yl)urea] | > 100000 | 100 | 5800 | 91.1 | 180 | 
4 | O=C(Nc1cc(F)c(F)c(F)c1)c1ccc(F)c(S(=O)(=O)N2CCC(O)CC2)c1 [NVR, reference compound] |  |  | 3600 |  |  | 340
5 | COc1ccc(N(Cc2cc(C)[nH]n2)C(=O)Nc2ccc(F)c(Cl)c2)cn1 [Example 50, 3-(3-chloro-4-fluorophenyl)-1-(6-methoxypyridin-3-yl)-1-((5-methyl-1H-pyrazol-3-yl)methyl)urea] | > 100000 |  | 3800 | 94.3 | 260 | 
6 | COC(=O)C1CCc2[nH]nc(CN(C(=O)Nc3ccc(F)c(Cl)c3)c3ccc(OC)nc3)c2C1 (stereo not drawn) [Example 53, methyl 3-((3-(3-chloro-4-fluorophenyl)-1-(6-methoxypyridin-3-yl)ureido)methyl)-4,5,6,7-tetrahydro-1H-indazole-5-carboxylate] | > 100000 | 58.9 |  | 20.1 | > 1100 | 
7 | COc1ccc(N(Cc2n[nH]c(C)c2C)C(=O)Nc2ccc(F)c(Cl)c2)cn1 [Example 57, 3-(3-chloro-4-fluorophenyl)-1-((4,5-dimethyl-1H-pyrazol-3-yl)methyl)-1-(6-methoxypyridin-3-yl)urea] | > 100000 | 93.2 | 2000 | 96.2 | 23 | 
8 | COc1ccc(N(Cc2cc(C(C)C)[nH]n2)C(=O)Nc2ccc(F)c(Cl)c2)cn1 [Example 58, 3-(3-chloro-4-fluorophenyl)-1-((5-isopropyl-1H-pyrazol-3-yl)methyl)-1-(6-methoxypyridin-3-yl)urea] | > 100000 | 92.7 | 5000 | 93.1 | 160 | 
9 | COc1ccc(N(Cc2n[nH]c3ccccc23)C(=O)Nc2ccc(F)c(Cl)c2)cn1 [Example 43, 1-((1H-indazol-3-yl)methyl)-3-(3-chloro-4-fluorophenyl)-1-(6-methoxypyridin-3-yl)urea] | > 100000 | 92 | 6060 | 96.7 | 43 | 
10 | COc1ccc(N(Cc2cn(C)nc2C)C(=O)Nc2ccc(F)c(Cl)c2)cc1 [Example 159, 3-(3-chloro-4-fluorophenyl)-1-((1,3-dimethyl-1H-pyrazol-4-yl)methyl)-1-(4-methoxyphenyl)urea] |  |  |  | 4 | > 3300 | 
11 | COc1ccc(N(Cc2cc(C)nn2C)C(=O)Nc2ccc(F)c(Cl)c2)cc1 [Example 108, 3-(3-chloro-4-fluorophenyl)-1-((1,3-dimethyl-1H-pyrazol-5-yl)methyl)-1-(4-methoxyphenyl)urea] |  |  | 5300 | 89.9 | 360 | 
12 | COc1ncc(N(Cc2cc(C(F)(F)F)[nH]n2)C(=O)Nc2ccc(C#N)c(F)c2)cn1 [Example 156, 3-(4-cyano-3-fluorophenyl)-1-(2-methoxypyrimidin-5-yl)-1-((5-(trifluoromethyl)-1H-pyrazol-3-yl)methyl)urea] | > 100000 | 107 |  |  | 83 | 
13 | COc1cncc(N(Cc2cc(C(F)F)[nH]n2)C(=O)Nc2ccc(F)c(Cl)c2)c1 [Example 77, 3-(3-chloro-4-fluorophenyl)-1-((5-(difluoromethyl)-1H-pyrazol-3-yl)methyl)-1-(5-methoxypyridin-3-yl)urea] | > 100000 | 86.7 |  |  | 36 | 
14 | COc1ncc(N(Cc2n[nH]c(C(F)(F)F)c2CC(C)O)C(=O)Nc2ccc(F)c(Cl)c2)cn1 (stereo not drawn) [Example 95, 3-(3-chloro-4-fluorophenyl)-1-((4-(2-hydroxypropyl)-5-(trifluoromethyl)-1H-pyrazol-3-yl)methyl)-1-(2-methoxypyrimidin-5-yl)urea] | 62200 | 29.9 |  |  | 830 | 
15 | COc1cc(N(Cc2cc(C(F)(F)F)[nH]n2)C(=O)Nc2ccc(F)c(Cl)c2)cnn1 [Example 94, 3-(3-chloro-4-fluorophenyl)-1-(6-methoxypyridazin-4-yl)-1-((5-(trifluoromethyl)-1H-pyrazol-3-yl)methyl)urea] | 64400 | 4.8 |  |  | 260 | 
16 | COc1ncc(N(Cc2cc(C(F)(F)F)[nH]n2)C(=O)Nc2cnc(F)nc2)cn1 [Example 186, 3-(2-fluoropyrimidin-5-yl)-1-(2-methoxypyrimidin-5-yl)-1-((5-(trifluoromethyl)-1H-pyrazol-3-yl)methyl)urea] | > 100000 | 86.4 |  |  | > 1100 | 
17 | CC(C)(O)c1cc(N(Cc2n[nH]c3c2CCOC3)C(=O)Nc2ccc(F)c(Cl)c2)ccn1 [Example 112, 3-(3-chloro-4-fluorophenyl)-1-(2-(2-hydroxypropan-2-yl)pyridin-4-yl)-1-((1,4,5,7-tetrahydropyrano[3,4-c]pyrazol-3-yl)methyl)urea] | > 66000 |  |  |  | > 1100 | 
18 | O=C(Nc1ccc(F)c(Cl)c1)N(Cc1n[nH]c2c1CCCO2)c1ccon1 [Example 136, 3-(3-chloro-4-fluorophenyl)-1-(isoxazol-3-yl)-1-((1,4,5,6-tetrahydropyrano[2,3-c]pyrazol-3-yl)methyl)urea] | 64000 | 7.3 |  |  | 48 | 
19 | CCOCCc1c(CN(C(=O)Nc2ccc(F)cc2)c2ccc(OC)nc2)n[nH]c1C(F)(F)F [Example 182, 1-((4-(2-ethoxyethyl)-5-(trifluoromethyl)-1H-pyrazol-3-yl)methyl)-3-(4-fluorophenyl)-1-(6-methoxypyridin-3-yl)urea] | > 100000 | 104 |  |  | > 1100 | 
20 | COc1cc(N(Cc2cc(C(F)F)[nH]n2)C(=O)Nc2ccc(F)c(Cl)c2)cnn1 [Example 99, 3-(3-chloro-4-fluorophenyl)-1-((5-(difluoromethyl)-1H-pyrazol-3-yl)methyl)-1-(6-methoxypyridazin-4-yl)urea] | > 100000 | 83.4 |  |  | 890 | 
21 | COc1ncc(N(Cc2cc(C#N)[nH]n2)C(=O)Nc2cc(F)c(F)c(F)c2)cn1 [Example 223, 1-((5-cyano-1H-pyrazol-3-yl)methyl)-1-(2-methoxypyrimidin-5-yl)-3-(3,4,5-trifluorophenyl)urea] | > 100000 | 87.5 |  |  | 70 | 
22 | CC(C)(O)c1ccc(N(Cc2n[nH]c3c2CCOC3)C(=O)Nc2ccc(F)c(Cl)c2)cn1 [Example 111, 3-(3-chloro-4-fluorophenyl)-1-(6-(2-hydroxypropan-2-yl)pyridin-3-yl)-1-((1,4,5,7-tetrahydropyrano[3,4-c]pyrazol-3-yl)methyl)urea] | > 100000 |  |  |  | > 1100 | 
23 | COc1cc(N(Cc2cc(C(F)(F)F)[nH]n2)C(=O)Nc2ccc(F)c(Cl)c2)ccn1 [Example 74, 3-(3-chloro-4-fluorophenyl)-1-(2-methoxypyridin-4-yl)-1-((5-(trifluoromethyl)-1H-pyrazol-3-yl)methyl)urea] | > 100000 | 55.6 |  |  | 22 | 
24 | COCCc1c(CN(C(=O)Nc2ccc(F)c(Cl)c2)c2ccc(OC)nc2)n[nH]c1C(F)F [Example 88, 3-(3-chloro-4-fluorophenyl)-1-((5-(difluoromethyl)-4-(2-methoxyethyl)-1H-pyrazol-3-yl)methyl)-1-(6-methoxypyridin-3-yl)urea] | > 100000 | 74.5 |  |  | > 1100 | 
25 | COC12CC(N(Cc3cc(C(F)(F)F)[nH]n3)C(=O)Nc3ccc(F)c(C(F)F)c3)(C1)C2 [Example 213, 3-(3-(difluoromethyl)-4-fluorophenyl)-1-(3-methoxybicyclo[1.1.1]pentan-1-yl)-1-((5-(trifluoromethyl)-1H-pyrazol-3-yl)methyl)urea] | > 100000 | 63.1 |  |  | 16 | 
26 | COc1ncc(N(Cc2cc(C(F)(F)F)[nH]n2)C(=O)Nc2cncc(C(F)F)c2)cn1 [Example 174, 3-(5-(difluoromethyl)pyridin-3-yl)-1-(2-methoxypyrimidin-5-yl)-1-((5-(trifluoromethyl)-1H-pyrazol-3-yl)methyl)urea] | > 100000 | 96.2 |  |  | 480 | 
27 | COc1ncc(N(Cc2cc(C(F)(F)F)[nH]n2)C(=O)Nc2cc(F)c(F)cn2)cn1 [Example 172, 3-(4,5-difluoropyridin-2-yl)-1-(2-methoxypyrimidin-5-yl)-1-((5-(trifluoromethyl)-1H-pyrazol-3-yl)methyl)urea] | > 100000 |  |  |  | 240 | 

Source: patent US20250009742A1 (priority 2021, published 2025)
